Assay results taken from US11339161B2, “Triazolo pyridines as modulators of gamma-secretase” (Boehringer Ingelheim International GmbH, priority 2017, dated 2022).
Where two headings read alike, the source gives them in different places.

What was measured:
[1] = biological target: LYN B (Homo sapiens, UniProt P07948); assay: Z'-LYTE SelectScreen biochemical kinase assay LYN B
Source text: (§1) Thermo Fisher Scientific SelectScreen™ Biochemical Kinase Profiling Service Z′-LYTE™ Screening Protocol and Assay Conditions Assay Theory
(§2) The […] biochemical assay employs a fluorescence-based, coupled-enzyme format and is based on the differential sensitivity of phosphorylated and non-phosphorylated peptides to proteolytic cleavage. The peptide substrate is labeled with two fluorophores—one at each end—that make up a FRET pair. In the primary reaction, the kinase transfers the gamma-phosphate of ATP to a single tyrosine, serine or threonine residue in a synthetic FRET-peptide. In the secondary reaction, a site-specific protease recognizes and cleaves non-phosphorylated FRET-peptides. Phosphorylation of FRET-peptides suppresses cleavage by the Development Reagent. Cleavage disrupts FRET between the donor (i.e., coumarin) and acceptor (i.e., fluorescein) fluorophores on the FRET-peptide, whereas uncleaved, phosphorylated FRET-peptides maintain FRET. A ratiometric method, which calculates the ratio (Emission Ratio=Coumarin emission (445 nm)/Fluorescein emission (520 nm)) of donor emission to acceptor emission after excitation of the donor fluorophore at 400 nm, is used to quantitate reaction progress, as shown in the equation below. A significant benefit of this ratiometric method for quantitating reaction progress is the elimination of well-to-well variations in FRET-peptide concentration and signal intensities. As a result, the assay yields very high Z′-factor values (>0.7) at a low percent phosphorylation. Both cleaved and uncleaved FRET-peptides contribute to the fluorescence signals and therefore to the Emission Ratio. The extent of phosphorylation of the FRET-peptide can be calculated from the Emission Ratio. The Emission Ratio will remain low if the FRET-peptide is phosphorylated (i.e., no kinase inhibition) and will be high if the FRET-peptide is non-phosphorylated (i.e., kinase inhibition).
(§3) The Test Compounds are screened in 1% DMSO (final) in the well. For 10 point titrations, 3-fold serial dilutions are conducted from the starting concentration of the customer's choosing.
(§4) All Peptide/Kinase Mixtures are diluted to a 2× working concentration in the appropriate Kinase Buffer (see section Kinase Specific Assay Conditions for a complete description).
(§5) All ATP Solutions are diluted to a 4× working concentration in Kinase Buffer (50 mM HEPES pH 7.5, 0.01% BRIJ-35, 10 mM MgCl2, 1 mM EGTA). ATP Km apparent is previously determined using a Z″-LYTE assay.
(§6) The Development Reagent is diluted in Development Buffer (see section Kinase-Specific Assay Conditions—Direct and Cascade for a complete description).
(§7) Bar-coded Corning, low volume NBS, black 384-well plate (Corning Cat. #4514) • 1. 100 nL—100× Test Compound in 100% DMSO • 2. 2.4 μL—Kinase buffer • 3. 5 μL—2× Peptide/Kinase Mixture • 4. 2.5 μL—4×ATP Solution • 5. 30—second plate shake • 6. 60—minute Kinase Reaction incubation at room temperature • 7. 5 μL—Development Reagent Solution • 8. 30—second plate shake • 9. 60—minute Development Reaction incubation at room temperature • 10. Read on fluorescence plate reader and analyze the data Z′-LYTE Assay Controls
(§8) SelectScreen Kinase Profiling Service uses XLfit from IDBS. The dose response curve is curve fit to model number 205 (sigmoidal dose-response model).
(§9) The 2×LYN B/Tyr 02 mixture is prepared in 50 mM HEPES pH 7.5, 0.01% BRIJ-35, 10 mM MgCl2, 1 mM EGTA. The final 10 μL Kinase Reaction consists of 0.85-14.8 ng LYN B and 2 μM Tyr 02 in 50 mM HEPES pH 7.5, 0.01% BRIJ-35, 10 mM MgCl2, 1 mM EGTA. After the 1 hour Kinase Reaction incubation, 5 μL of a 1:128 dilution of Development Reagent A is added.

[2] = biological target: MAP4K4 (HGK) (Homo sapiens, UniProt O95819); assay: Z'-LYTE SelectScreen biochemical kinase assay MAP4K4 (HGK)
Source text: as §1, §2, §3, §4, §5, §6, §7, §8
as §9, with “2×MAP4K4 (HGK)/Ser/Thr 07” for “2×LYN B/Tyr 02”, “0.36-1.82” for “0.85-14.8”, “MAP4K4 (HGK)” for “LYN B”, “Ser/Thr 07” for “Tyr 02”, “1:45000” for “1:128”

[3] = system: Aβ42 production; assay: Inhibition of Aβ42 production in H4 neuroglioma cells stably expressing human APP695 (MSD electrochemiluminescence); type: cell-based; settings: H4 neuroglioma cells expressing human APP695, 22 hours incubation; Table 4a
[4] = system: Aβ total; assay: Aβ total levels in H4 neuroglioma cells stably expressing human APP695 (MSD electrochemiluminescence); type: cell-based; settings: selectivity ratio vs. Aβtotal, Table 4a
Outline: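 H4 cells expressing human APP695, plated near confluency, exposed 22 h at 37 °C to compounds over 30 μM–0.1 nM (0.5% DMSO final). Supernatant Aβ total quantified by MSD electrochemiluminescence immunoassay.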

[5] = biological target: RET (Homo sapiens, UniProt P07949); assay: Z'-LYTE SelectScreen biochemical kinase assay RET
Source text: as §1, §2, §3, §4, §5, §6, §7, §8
as §9, with “2×RET/Tyr” for “2×LYN B/Tyr”, “0.49-3.64” for “0.85-14.8”, “RET” for “LYN B”

[6] = 10 μmolar compound concentration, ATP at Km app, read-out: LYN B inhibition
[7] = read-out: % Inhibition mean LYN B
[8] = 10 μmolar compound concentration, ATP at Km app, read-out: MAP4K4 (HGK) inhibition
[9] = read-out: % Inhibition mean MAP4K4 (HGK)
[10] = 10 μmolar compound concentration, ATP at Km app, read-out: RET inhibition
[11] = read-out: % Inhibition mean RET

Sequence of MAP4K4 (HGK) (O95819 whole entry): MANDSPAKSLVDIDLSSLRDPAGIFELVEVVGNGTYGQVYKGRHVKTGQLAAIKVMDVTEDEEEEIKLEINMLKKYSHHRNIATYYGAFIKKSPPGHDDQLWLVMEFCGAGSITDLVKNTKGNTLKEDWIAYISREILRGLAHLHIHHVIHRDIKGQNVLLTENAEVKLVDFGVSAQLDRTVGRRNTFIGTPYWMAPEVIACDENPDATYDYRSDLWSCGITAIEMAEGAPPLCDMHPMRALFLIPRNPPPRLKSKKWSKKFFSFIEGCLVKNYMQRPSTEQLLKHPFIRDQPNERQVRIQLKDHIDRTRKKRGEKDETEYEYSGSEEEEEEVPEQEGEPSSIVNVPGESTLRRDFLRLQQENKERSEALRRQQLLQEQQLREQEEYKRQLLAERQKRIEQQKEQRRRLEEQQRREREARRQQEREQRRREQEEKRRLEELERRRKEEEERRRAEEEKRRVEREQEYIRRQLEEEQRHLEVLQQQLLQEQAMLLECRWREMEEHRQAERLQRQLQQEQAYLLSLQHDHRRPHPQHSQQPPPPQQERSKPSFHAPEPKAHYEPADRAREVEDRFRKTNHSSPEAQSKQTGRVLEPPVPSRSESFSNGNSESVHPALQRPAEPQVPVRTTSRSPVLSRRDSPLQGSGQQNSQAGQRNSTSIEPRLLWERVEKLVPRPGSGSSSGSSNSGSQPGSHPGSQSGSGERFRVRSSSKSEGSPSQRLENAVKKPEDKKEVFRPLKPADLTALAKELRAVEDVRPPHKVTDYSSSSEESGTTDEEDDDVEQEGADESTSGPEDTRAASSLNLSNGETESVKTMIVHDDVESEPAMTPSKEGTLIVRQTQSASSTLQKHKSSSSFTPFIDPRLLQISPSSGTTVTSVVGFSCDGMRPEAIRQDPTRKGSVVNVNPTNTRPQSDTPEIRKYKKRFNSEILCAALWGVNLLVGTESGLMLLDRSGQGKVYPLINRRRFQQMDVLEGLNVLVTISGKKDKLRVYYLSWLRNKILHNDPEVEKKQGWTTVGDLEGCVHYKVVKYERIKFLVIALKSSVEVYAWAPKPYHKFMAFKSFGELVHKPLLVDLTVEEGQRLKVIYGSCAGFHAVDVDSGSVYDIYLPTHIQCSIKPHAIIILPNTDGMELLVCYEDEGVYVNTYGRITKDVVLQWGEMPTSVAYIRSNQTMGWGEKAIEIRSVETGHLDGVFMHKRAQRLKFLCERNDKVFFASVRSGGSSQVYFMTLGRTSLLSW
Sequence of RET (P07949 29-1114): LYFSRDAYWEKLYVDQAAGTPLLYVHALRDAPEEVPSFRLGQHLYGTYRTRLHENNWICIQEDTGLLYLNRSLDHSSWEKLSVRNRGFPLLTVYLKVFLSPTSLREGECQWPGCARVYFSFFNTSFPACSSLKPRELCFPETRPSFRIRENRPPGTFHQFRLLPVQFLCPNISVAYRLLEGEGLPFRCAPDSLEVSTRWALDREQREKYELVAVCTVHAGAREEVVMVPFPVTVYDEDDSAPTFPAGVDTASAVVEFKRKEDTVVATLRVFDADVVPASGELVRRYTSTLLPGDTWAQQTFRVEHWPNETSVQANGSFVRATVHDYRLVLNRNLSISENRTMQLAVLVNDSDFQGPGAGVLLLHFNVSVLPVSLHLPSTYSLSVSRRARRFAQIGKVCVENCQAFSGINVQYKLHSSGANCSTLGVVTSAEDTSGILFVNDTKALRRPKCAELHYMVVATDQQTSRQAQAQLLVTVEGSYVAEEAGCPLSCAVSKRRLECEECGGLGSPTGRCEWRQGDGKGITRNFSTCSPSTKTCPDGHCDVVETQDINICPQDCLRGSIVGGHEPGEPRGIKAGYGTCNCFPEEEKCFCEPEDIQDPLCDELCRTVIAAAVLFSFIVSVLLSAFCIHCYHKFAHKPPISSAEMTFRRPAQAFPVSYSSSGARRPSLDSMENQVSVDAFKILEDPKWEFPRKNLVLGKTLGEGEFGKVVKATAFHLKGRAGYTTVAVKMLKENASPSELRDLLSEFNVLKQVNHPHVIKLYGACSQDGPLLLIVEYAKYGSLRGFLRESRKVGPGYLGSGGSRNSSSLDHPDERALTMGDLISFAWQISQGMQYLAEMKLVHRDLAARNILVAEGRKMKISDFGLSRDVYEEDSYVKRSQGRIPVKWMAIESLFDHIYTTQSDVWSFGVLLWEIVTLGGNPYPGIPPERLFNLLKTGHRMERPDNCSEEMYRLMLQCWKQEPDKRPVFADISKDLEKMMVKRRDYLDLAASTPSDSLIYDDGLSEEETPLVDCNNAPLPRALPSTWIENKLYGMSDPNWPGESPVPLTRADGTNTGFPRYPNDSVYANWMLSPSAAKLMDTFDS
Sequence of LYN B (P07948 1-491 isoform P07948-2): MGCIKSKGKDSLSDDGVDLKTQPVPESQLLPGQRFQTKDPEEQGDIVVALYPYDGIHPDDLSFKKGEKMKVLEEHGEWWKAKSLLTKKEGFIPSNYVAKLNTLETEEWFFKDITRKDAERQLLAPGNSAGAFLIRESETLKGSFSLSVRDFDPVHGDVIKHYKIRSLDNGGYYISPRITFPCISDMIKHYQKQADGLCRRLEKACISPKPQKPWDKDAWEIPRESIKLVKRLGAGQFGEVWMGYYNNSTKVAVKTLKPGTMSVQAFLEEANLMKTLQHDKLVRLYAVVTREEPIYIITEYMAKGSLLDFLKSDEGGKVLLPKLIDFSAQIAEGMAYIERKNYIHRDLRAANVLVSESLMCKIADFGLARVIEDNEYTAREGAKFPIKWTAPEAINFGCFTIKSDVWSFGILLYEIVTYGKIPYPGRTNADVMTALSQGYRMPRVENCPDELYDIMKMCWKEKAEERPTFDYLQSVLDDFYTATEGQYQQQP

Row | inhibition at 10 µM [1, 6] [%] | inhibition at 10 µM [1, 7] [%] | inhibition at 10 µM [2, 8] [%] | inhibition at 10 µM [2, 9] [%] | IC50 [3] [nM] | inhibition at 10 µM [5, 10] [%] | inhibition at 10 µM [5, 11] [%] | Compound | Ratio AβTotal IC50/Aβ42 IC50 [4]
1 | < 40 | 19 | < 40 | 37 | 70 | < 40 | 29 | CCn1ncc2c1CCC(Nc1nc3c(-c4ccc(F)cc4C)cccn3n1)C2 (stereo not shown) [Example 42, (1-Ethyl-4,5,6,7-tetrahydro-1H-indazol-5-yl)-[8-(4-fluoro-2-methyl-phenyl)-[1,2,4]triazolo[1,5-a]pyridine-2-yl]-amine] | 23
2 | < 40 | 17 | < 40 | 24 | 9 | < 40 | 20 | CCn1ncc2c1CC[C@@H](Nc1nc3c(-c4ccc(F)c(Cl)c4)cccn3n1)C2 [Example R-61, (R)-[8-(3-Chloro-4-fluoro-phenyl)-[1,2,4]triazolo[1,5-a]pyridine-2-yl]-(1-ethyl-4,5,6,7-tetrahydro-1H-indazol-5-yl)-amine] | 1098
3 | < 40 | 15 | < 40 | 25 | 3130 | < 40 | 15 | CCc1nn(C)c2c1CCC(Nc1nc3c(-c4ccc(F)cc4C)cccn3n1)C2 (stereo not shown) [Example 54, (3-Ethyl-1-methyl-4,5,6,7-tetrahydro-1H-indazol-6-yl)-[8-(4-fluoro-2-methyl-phenyl)-[1,2,4]triazolo[1,5-a]pyridine-2-yl]-amine] | 10
4 | < 40 | 13 | 40 to 80 | 48 | 350 | < 40 | 20 | CCn1ncc2c1CCC(Nc1nc3c(-c4cccnc4)cccn3n1)C2 (stereo not shown) [Example 63, (1-Ethyl-4,5,6,7-tetrahydro-1H-indazol-5-yl)-(8-pyridin-3-yl-[1,2,4]triazolo[1,5-a]pyridine-2-yl)-amine] | 85
5 | < 40 | 22 | 40 to 80 | 56 | 200 | < 40 | 32 | CCn1ncc2c1CCC(Nc1nc3c(-c4cncc(OC)c4)cccn3n1)C2 (stereo not shown) [Example 70, (1-Ethyl-4,5,6,7-tetrahydro-1H-indazol-5-yl)-[8-(5-methoxy-pyridin-3-yl)-[1,2,4]triazolo[1,5-a]pyridine-2-yl]-amine] | 60
6 | < 40 | 23 | 40 to 80 | 48 | 2770 | < 40 | 26 | CCCCn1ncc2c1CCC(Nc1nc3c(-c4ccc(F)cc4C)cccn3n1)C2 (stereo not shown) [Example 46, [8-(4-fluoro-2-methyl-phenyl)-[1,2,4]triazolo[1,5-a]pyridine-2-yl]-(1-butyl-4,5,6,7-tetrahydro-1H-indazol-5-yl)-amine] | 4
7 | < 40 | 25 | 40 to 80 | 54 | 950 | < 40 | 22 | CCn1ncc2c1C(C)CC(Nc1nc3c(-c4cc(F)c(F)c(F)c4)cccn3n1)C2 (stereo not shown) [Example 49, (1-Ethyl-7-methyl-4,5,6,7-tetrahydro-1H-indazol-5-yl)-[8-(3,4,5-trifluoro-phenyl)-[1,2,4]triazolo[1,5-a]pyridine-2-yl]-amine] | 15
8 | < 40 | 22 | 40 to 80 | 42 | 120 | < 40 | 28 | CCn1ncc2c1CCC(Nc1nc3c(-c4cnccc4OC)cccn3n1)C2 (stereo not shown) [Example 68, (1-Ethyl-4,5,6,7-tetrahydro-1H-indazol-5-yl)-[8-(4-methoxy-pyridin-3-yl)-[1,2,4]triazolo[1,5-a]pyridine-2-yl]-amine] | 241
